This note sets out measurements from US20200085789A1, “USE OF A PROTEASOME INHIBITOR FOR THE TREATMENT OF CENTRAL NERVOUS SYSTEM (CNS) CANCERS” (Celgene International II Sàrl, priority 2017, published 2020).

The nature of the series: Marizomib blood pharmacokinetics (Part 1 Phase 1). The following applies: for AUC(0-t) / Cmax / Tmax / Vd / half-life: human, whole blood, intravenous.

Procedure: Blood samples will be taken for peak and trough measurements, pre-dose and immediately prior to (end of infusion) EOI, on Cycle 1 Day 1. On Cycle 1 Day 15 full PK sampling will be done: pre-dose, immediately prior to EOI and then 2, 5, 15, 30, 45, 60, 90 and 120 minutes post infusion. The following PK parameters will be estimated by non-compartmental analysis:
Non-compartmental analyses will be performed. […] Blood concentrations and computed PK parameters for MRZ will be listed and summarized by cohort (mean, geometric mean, standard deviation, coefficient of variation, minimum, maximum and number of observations).
Blood should be drawn from the contralateral arm to the infusion site and using an indwelling catheter to avoid multiple needle sticks is recommended. Sample collection time should be recorded on the tube label and Case Report Form (CRF) as day: hour: minute. Nominal time of blood collection are given as “time points”; it is critical that an accurately collected actual time of the sample is written on the CRF and on the blood tubes (date entered as dd:mm:yyyy; time entered using a 24-hour clock, hh:mm). For MRZ samples will be obtained before treatment and just prior to end of infusion on Cycle 1 Day 1. On Cycle 1 Day 15, MRZ blood samples will be obtained before treatment, just prior to end of infusion, and 2, 5, 15, 30, 45, 60, 90, and 120 minutes after the infusion. Every effort should be made to collect samples at the prescribed times, but deviations up to 10% of the time point are allowed. Additional samples may be collected if the subject experiences a potentially drug-related SAE. After blood collection, neutralizing solution must be added. Use Sponsor-provided PK kits. Process, store and ship samples per instructions in Study Reference Manual.
Non-compartmental analyses will be performed.

For `C[C@@]12OC(=O)[C@]1([C@@H](O)[C@@H]1C=CCCC1)NC(=O)[C@@H]2CCCl` [MRZ, marizomib], the CLobs (MRZ 0.7 mg/m^2, C1D8) is 272 ± 166 (3) L/hr. For the same molecule, the CLobs (MRZ 0.8 mg/m^2, C1D8) is 304 ± 85.0 (3) L/hr. For the same molecule, the pharmacokinetic parameters entry (co-administration with bevacizumab) is “consistent with published parameters and not affected by co-administration”. Moreover, for the setting “0.7 mg/m2”, the AUC(0-t) was 3.22 ng·h/mL, the Cmax came to 64.9 ± 1.73 ng/mL, the Tmax is 21.3 min and the Vd was 48.3 ± 16.1 L. The half-life (0.7 mg/m2) was found to be 16 ± 8.08 min. For the same molecule, where the note is “0.8 mg/m2”, the area under the curve AUC(0-t) was 6.53 ng·h/mL, the highest level (Cmax) was 26.5 ± 7.92 ng/mL, the Tmax was 8 min and the Vd was 55 ± 19.7 L. In addition, where the note is “0.8 mg/m2”, the half-life was determined as 7.27 ± 0.423 min. Under “[…]2”, the Tmax was 15.5 min, the Vd amounted to 54.4 ± 10.6 L and the half-life amounted to 8.2 ± 0.8 min.

In general, AUC(0-t) refers to exposure summed from dosing to a finite time, without extrapolation to infinity. In general, Cmax refers to the maximum level reached in the sampled fluid or tissue. As a reminder, the Tmax is the time from dosing to the highest level. In general, Vd refers to a proportionality between amount in the body and measured concentration, not a real space. A lower Vd goes with confinement near the circulation. Broadly, the half-life is the time in which the quantity being followed falls by half. Low readings indicate fast loss, high ones slow loss.
